Source: ChEMBL document CHEMBL6087385, “Synthesis and biological evaluation of Ribo 7-N/O/S pyrimidine 9-deaza C-nucleoside analogs as new antiviral agents for inhibiting HCV RNA-dependent RNA polymerases” (Eur J Med Chem, 2024)
Activity calls are given as the source filed them. The rule behind the calls is not given here.

Assays:
Hepatitis C virus [1] = experiment: Antiviral activity against Hepatitis C virus infected in Ava5 cells assessed as inhibition of viral RNA replication incubated for 72 hrs by RT-PCR analysis; format: functional, organism-based; settings: for Activity: Hepacivirus hominis
Hepatitis C virus [2] = experiment: Antiviral activity against HCV infected in human Huh-7 cells assessed as inhibition of viral RNA replication incubated for 24 hrs by ribonuclease protection assay; format: functional, organism-based, Hepacivirus hominis; settings: Huh-7, 24 h
Hepatitis C virus [3] = experiment: Antiviral activity against HCV genotype 1a infected in GLuc-1 cells; format: functional, organism-based, Hepacivirus hominis
Hepatitis C virus [4] = experiment: Anti-viral activity against HCV genotype 2a infected in 2aLucNeo-25 cells; format: functional, organism-based, Hepacivirus hominis
Hepatitis C virus [5] = experiment: Anti-viral activity against HCV genotype 1b infected in human Huh-luc cells; format: functional, organism-based, Hepacivirus hominis
Hepatitis C virus [6] = experiment: Anti-viral activity against HCV genotype 2a infected in Lunet-CD81 cells; format: functional, organism-based, Hepacivirus hominis

| Structure (SMILES) | Activity (Hepatitis C virus [1]) | also measured |
| --- | --- | --- |
| C[C@@]1(O)[C@H](O)[C@@H](CO)O[C@H]1c1coc2c(=O)[nH]c(N)nc12 | inactive |  |
| C[C@@]1(O)[C@H](O)[C@@H](CO)O[C@H]1n1cnc2c(N)ncnc21 |  | EC50 (Hepatitis C virus [2]): 300 nM; EC50 (Hepatitis C virus [3]): 230 nM; EC50 (Hepatitis C virus [4]): 1430 nM; EC50 (Hepatitis C virus [5]): 300 nM; EC50 (Hepatitis C virus [6]): 300 nM |
| C[C@@]1(O)[C@H](O)[C@@H](CO)O[C@H]1c1coc2c(=O)[nH]cnc12 | inactive |  |
| C[C@@]1(O)[C@H](O)[C@@H](CO)O[C@H]1c1c[nH]c2c(=O)[nH]c(N)nc12 | inactive |  |
| C[C@@]1(O)[C@H](O)[C@@H](CO)O[C@H]1c1coc2c(=S)[nH]cnc12 | inactive |  |
| C[C@@]1(O)[C@H](O)[C@@H](COP(=O)(O)OP(=O)(O)OP(=O)(O)O)O[C@H]1c1coc2c(N)ncnc12 |  | IC50 (Hepatitis C virus [1]; Ava5, 72 h): 5 µM |
| C[C@@]1(O)[C@H](O)[C@@H](CO)O[C@H]1c1coc2c(N)nc(N)nc12 | inactive |  |
| C[C@@]1(O)[C@H](O)[C@@H](CO)O[C@H]1c1csc2c(N)ncnc12 | inactive |  |
